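Interpolation was linear, between the two tested concentrations surrounding the appropriate level; five concentrations were tested over 48 hours in 96-well plates. TGI marks complete inhibition of growth.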
Key:
Assay in all cases: NCI anticancer screen, dose series, 48 h
HOP-92 NSCLC = test system: HOP-92 NSCLC
M14 melanoma = test system: M14 melanoma
U251 CNS = test system: U251 CNS
SK-MEL-28 melanoma = test system: SK-MEL-28 melanoma
HOP-62 NSCLC = test system: HOP-62 NSCLC
MDA-MB-231 breast = test system: MDA-MB-231 breast
DU-145 prostate = test system: DU-145 prostate
A498 renal = test system: A498 renal
MCF7 breast = test system: MCF7 breast
MALME-3M melanoma = test system: MALME-3M melanoma
SF-539 CNS = test system: SF-539 CNS
COLO 205 colon = test system: COLO 205 colon
UACC-62 melanoma = test system: UACC-62 melanoma
IGROV1 ovarian = test system: IGROV1 ovarian
HT29 colon = test system: HT29 colon
BT-549 breast = test system: BT-549 breast
EKVX NSCLC = test system: EKVX NSCLC
NCI-H522 lung = test system: NCI-H522 lung
A549 NSCLC = test system: A549 NSCLC
CAKI-1 renal = test system: CAKI-1 renal
OVCAR-3 ovarian = test system: OVCAR-3 ovarian
PC-3 prostate = test system: PC-3 prostate
SF-268 CNS = test system: SF-268 CNS
NCI-H460 lung = test system: NCI-H460 lung
HS 578T breast = test system: HS 578T breast
OVCAR-4 ovarian = test system: OVCAR-4 ovarian
HCT-116 colon = test system: HCT-116 colon
HCT-15 colon = test system: HCT-15 colon
RPMI-8226 leukemia = test system: RPMI-8226 leukemia
SNB-75 CNS = test system: SNB-75 CNS
NCI/ADR-RES ovarian = test system: NCI/ADR-RES ovarian
OVCAR-5 ovarian = test system: OVCAR-5 ovarian
SW-620 colon = test system: SW-620 colon
SN12C renal = test system: SN12C renal
ACHN renal = test system: ACHN renal
UACC-257 melanoma = test system: UACC-257 melanoma
MDA-MB-435 = test system: MDA-MB-435
TK-10 renal = test system: TK-10 renal
CCRF-CEM leukemia = test system: CCRF-CEM leukemia
HCC-2998 colon = test system: HCC-2998 colon
RXF 393 renal = test system: RXF 393 renal
SK-MEL-2 melanoma = test system: SK-MEL-2 melanoma
UO-31 renal = test system: UO-31 renal
SNB-19 CNS = test system: SNB-19 CNS
T-47D breast = test system: T-47D breast
SF-295 CNS = test system: SF-295 CNS
SK-MEL-5 melanoma = test system: SK-MEL-5 melanoma
786-0 renal = test system: 786-0 renal
KM12 colon = test system: KM12 colon
NCI-H23 lung = test system: NCI-H23 lung

Measured: TGI

O=c1c2ccccc2nnn1-c1n[nH]c2ccccc12
> 100 µM: all assays above

Source: PubChem BioAssay (NCI)
